This passage reports pD2 and Efficacy results from ChEMBL document CHEMBL1123766, “2-Amino- and 2-guanidino-1,2,3,4-tetrahydro-1,4-epoxynaphthalenes as conformationally defined analogues of alpha-adrenergic agents” (J Med Chem, 1987).

In test [1] the target is T1, Adrenergic receptor alpha-2 (Rattus norvegicus) (UniProt P22086+P19328+P22909). Description: Evaluated for alpha-2 adrenergic receptor activity in the field stimulated rat vas deferens preparation.* Stimulatory effects blocked by prazosin (78 nM). Format: tissue-based.
The target of test [2] is T1, Adrenergic receptor alpha-2 (Rattus norvegicus). Nature of the test: Approximate efficacy based on maximal effect produced by […] was determined against the alpha-2 adrenergic receptor. The test is classed as protein assay.
Test [3] shares this target. Description: Evaluated for alpha-2 adrenergic receptor activity in the field stimulated rat vas deferens preparation.*-confirmed by pretreatment with reserpine (3 mg/kg) 16 hr prior to sacrifice. Stimulatory effects blocked by prazosin (78 nM).
The target is the same in test [4]. Description: Evaluated for alpha-2 adrenergic receptor activity in the field stimulated rat vas deferens preparation. Format: tissue-based.
Test [5] shares this target. Description: Evaluated for alpha-2 adrenergic receptor activity in the field stimulated rat vas deferens preparation.* Confirmed by pretreatment with reserpine (3 mg/kg) 16 hr prior to sacrifice. Stimulatory effects blocked by prazosin (78 nM). Value estimated in the presen.
The target is the same in test [6]. Description: Evaluated for alpha-2 adrenergic receptor activity in the field stimulated rat vas deferens preparation. The test is classed as tissue-based.

SMILES strings stand for the structures. Where only a bound is given, the exact number is not on record here.

In test [1], `COc1ccc(OC)c2c1C1CC(N=C(N)N)C2O1` (centres undefined) came in with a pD2 of 4.75. In test [2], this compound came in with an Efficacy of 0.7.

As to `COc1ccc(OC)c2c1C1C[C@H](N)C2O1` (some centres undefined), the pD2 in test [3] worked out at 5.08. In test [2], this compound gave an Efficacy of 0.9.

As for `COc1ccc(OC)c(C(O)C(C)N)c1` (centres undefined), the pD2 in test [4] stood at 6.48. This compound also had an Efficacy in test [2] of 1.

Consider `N[C@H]1CC2OC1c1ccccc12` (some centres undefined), for which, in test [5], the pD2 is 4.9.

For `N[C@@H]1CC2OC1c1ccccc12` (some centres undefined), the pD2 in test [4] was less than 3.

In turn, `COc1ccc(OC)c2c1C1C[C@@H](N)C2O1` (some centres undefined) showed a pD2 in test [6] of 3.49.
